Results: PubChem BioAssay AID1963868 (Molecular Pharmacology Branch, DTP, NCI, 2024)

System: KRAS PDC tumor spheroids (HUVEC+MSC), viability
Experiment: Anticancer human tumor 254851-301-R-J1-PDC patient-derived colon carcinoma cell line growth inhibition [KRAS2]
Settings: for IC50: curve of first compound; for viability, T/C: stronger effect = lower value
Summary of the method: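 KRAS-mutant tumor cells were grown as spheroids with HUVEC endothelial cells and human MSCs as stroma. Targeted agents were tested alone and with KRAS pathway inhibitors. Doses started at or near clinical Cmax, or 10 microM, descending half-log.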

[1] = second compound 0.1 µM, first compound 0.0316 µM
[2] = second compound 0.1 µM, first compound 0.1 µM
[3] = second compound 0.1 µM, first compound 0.316 µM
[4] = second compound 0.1 µM, first compound 1 µM
[5] = second compound 0.1 µM, first compound 3.16 µM
[6] = second compound 0.1 µM, first compound 10 µM
[7] = second compound 0.316 µM, first compound 0.0316 µM
[8] = second compound 0.316 µM, first compound 0.1 µM
[9] = second compound 0.316 µM, first compound 0.316 µM
[10] = second compound 0.316 µM, first compound 1 µM
[11] = second compound 0.316 µM, first compound 3.16 µM
[12] = second compound 0.316 µM, first compound 10 µM
[13] = second compound 1 µM, first compound 0.0316 µM
[14] = second compound 1 µM, first compound 0.1 µM
[15] = second compound 1 µM, first compound 0.316 µM
[16] = second compound 1 µM, first compound 1 µM
[17] = second compound 1 µM, first compound 3.16 µM
[18] = second compound 1 µM, first compound 10 µM
[19] = second compound 3.16 µM, first compound 0.0316 µM
[20] = second compound 3.16 µM, first compound 0.1 µM
[21] = second compound 3.16 µM, first compound 0.316 µM
[22] = second compound 3.16 µM, first compound 1 µM
[23] = second compound 3.16 µM, first compound 3.16 µM
[24] = second compound 3.16 µM, first compound 10 µM
[25] = second compound 10 µM, first compound 0.0316 µM
[26] = second compound 10 µM, first compound 0.1 µM
[27] = second compound 10 µM, first compound 0.316 µM
[28] = second compound 10 µM, first compound 1 µM
[29] = second compound 10 µM, first compound 3.16 µM
[30] = second compound 10 µM, first compound 10 µM
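Note: spheroids exposed to compounds for seven days before readout.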
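Throughout, for viability, T/C: 100% = DMSO vehicle control luminescence of the spheroids.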

Row | SMILES | IC50 (second compound 0.1 µM) [nM] | IC50 (second compound 0.316 µM) [nM] | IC50 (second compound 1 µM) [nM] | IC50 (second compound 3.16 µM) [nM] | IC50 (second compound 10 µM) [nM] | viability, T/C [1] [%] | viability, T/C [2] [%] | viability, T/C [3] [%] | viability, T/C [4] [%] | viability, T/C [5] [%] | viability, T/C [6] [%] | viability, T/C [7] [%] | viability, T/C [8] [%] | viability, T/C [9] [%] | viability, T/C [10] [%] | viability, T/C [11] [%] | viability, T/C [12] [%] | viability, T/C [13] [%] | viability, T/C [14] [%] | viability, T/C [15] [%] | also measured
1 | COC(=O)c1ccc2c(C(=Nc3ccc(N(C)C(=O)CN4CCN(C)CC4)cc3)c3ccccc3)c(O)[nH]c2c1 + CNCc1ccccc1-c1csc(C(C)Nc2nc(C)nc3cc(OC)c(OC)cc23)c1 | > 10000 | > 10000 | > 10000 | 378 | < 31.6 | 101 | 94.3 | 96.3 | 91 | 83.9 | 95.9 | 93.1 | 93.6 | 91.9 | 87 | 77.4 | 86.2 | 91.8 | 96.5 | 84.8 | viability, T/C [16]: 79.9%; viability, T/C [17]: 69.2%; viability, T/C [18]: 59%; viability, T/C [19]: 63.6%; viability, T/C [20]: 70.2%; viability, T/C [21]: 58.8%; viability, T/C [22]: 2.44%; viability, T/C [23]: 0.21%; viability, T/C [24]: 0.68%; viability, T/C [25]: 0.16%; viability, T/C [26]: 0.16%; viability, T/C [27]: 0.25%; viability, T/C [28]: 0.11%; viability, T/C [29]: 0.1%; viability, T/C [30]: 0.16%
2 | COc1cc(Nc2ncc3c(n2)-c2ccc(Cl)cc2C(c2c(F)cccc2OC)=NC3)ccc1C(=O)O + CNCc1ccccc1-c1csc(C(C)Nc2nc(C)nc3cc(OC)c(OC)cc23)c1 | 82.8 | 83.4 | 87.1 | < 31.6 | < 31.6 | 80 | 40.1 | 29.3 | 26.2 | 18.5 | 9.63 | 77.9 | 39.5 | 31.1 | 27 | 17.7 | 9.95 | 82 | 39.5 | 32.8 | viability, T/C [16]: 28.6%; viability, T/C [17]: 21.6%; viability, T/C [18]: 9.92%; viability, T/C [19]: 49.5%; viability, T/C [20]: 22.9%; viability, T/C [21]: 20.6%; viability, T/C [22]: 12.5%; viability, T/C [23]: 6.88%; viability, T/C [24]: 4.66%; viability, T/C [25]: 0.15%; viability, T/C [26]: 0.13%; viability, T/C [27]: 0.12%; viability, T/C [28]: 0.1%; viability, T/C [29]: 0.11%; viability, T/C [30]: 0.14%
3 | COc1cc2nccc(Oc3ccc(NC(=O)C4(C(=O)Nc5ccc(F)cc5)CC4)cc3)c2cc1OC + CNCc1ccccc1-c1csc(C(C)Nc2nc(C)nc3cc(OC)c(OC)cc23)c1 | 9900 | 7280 | 6420 | 1630 | < 31.6 | 102 | 104 | 97.2 | 103 | 101 | 49.6 | 112 | 91.5 | 96.3 | 101 | 85.5 | 36.3 | 107 | 102 | 100 | viability, T/C [16]: 99.7%; viability, T/C [17]: 82.7%; viability, T/C [18]: 29.3%; viability, T/C [19]: 82%; viability, T/C [20]: 78%; viability, T/C [21]: 72.4%; viability, T/C [22]: 64.4%; viability, T/C [23]: 32.5%; viability, T/C [24]: 0.27%; viability, T/C [25]: 0.19%; viability, T/C [26]: 0.17%; viability, T/C [27]: 0.16%; viability, T/C [28]: 0.18%; viability, T/C [29]: 0.13%; viability, T/C [30]: 0.17%
